# Assay results: ChEMBL document CHEMBL3997767, “Magnetic Microbead Affinity Selection Screening (MagMASS) of Botanical Extracts for Inhibitors of 15-Lipoxygenase” (J Nat Prod, 2016)
# Activity calls are given as the source filed them. The calls are words filed in the database; no cut-off is given here.
# Assays:
# Glycine max [1] = test: Binding affinity to soybean p1 15-LOX at 100 pmol after 1 hr by magnetic microbead affinity selection screening method
# [2] = molecular target: T1, Polyunsaturated fatty acid lipoxygenase ALOX15 (Homo sapiens, UniProt P16050); test: Inhibition of 15-LOX (unknown origin)
# T1 sequence (P16050 whole entry): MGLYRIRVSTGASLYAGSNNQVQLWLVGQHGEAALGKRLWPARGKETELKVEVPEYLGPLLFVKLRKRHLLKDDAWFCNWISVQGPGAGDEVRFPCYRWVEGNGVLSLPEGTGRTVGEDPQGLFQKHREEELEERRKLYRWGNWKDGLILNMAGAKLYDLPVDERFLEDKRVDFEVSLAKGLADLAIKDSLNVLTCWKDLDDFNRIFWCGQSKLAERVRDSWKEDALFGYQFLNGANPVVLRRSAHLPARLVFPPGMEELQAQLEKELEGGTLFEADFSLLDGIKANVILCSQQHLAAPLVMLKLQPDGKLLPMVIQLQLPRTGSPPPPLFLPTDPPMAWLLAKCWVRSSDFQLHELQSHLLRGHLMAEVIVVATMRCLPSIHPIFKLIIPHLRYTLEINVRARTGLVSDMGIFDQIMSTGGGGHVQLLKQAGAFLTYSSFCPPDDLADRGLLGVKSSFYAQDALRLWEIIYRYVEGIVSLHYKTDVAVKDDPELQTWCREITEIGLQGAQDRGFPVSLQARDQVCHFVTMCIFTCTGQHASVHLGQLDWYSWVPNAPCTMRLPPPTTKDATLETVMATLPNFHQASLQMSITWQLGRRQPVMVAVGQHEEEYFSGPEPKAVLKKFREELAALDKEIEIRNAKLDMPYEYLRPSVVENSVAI
# [3] = Inhibition of 15-LOX in soybean using linoleic acid as substrate measured for 30 to 90 secs; set-up: species or system Glycine max
# Glycine max [4] = test: Binding affinity to soybean p1 15-LOX at 10 ug after 1 hr by magnetic microbead affinity selection screening method
SMILES,Activity (Glycine max [1]),IC50 [2] [µM],IC50 [3] [µM],Activity (Glycine max [4])
O=c1c2ccccc2[se]n1-c1ccccc1,inactive,–,–,–
O=c1cc(-c2ccc(O)c(O)c2)oc2cc(O)cc(O)c12 [LUTEOLIN],Active,5,–,–
C[C@@H]1O[C@@H](Oc2c(-c3ccc(O)c(O)c3)oc3cc(O)cc(O)c3c2=O)[C@H](O)[C@H](O)[C@H]1O [QUERCITRIN],–,–,79.8,Active
